From ChEMBL document CHEMBL1201862, “PubChem BioAssay data set” (2004)
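Step 1: Grow cells in 96-well plates. Step 2: Expose to compound for 48 hours at 5 concentrations. Step 3: Interpolate endpoints linearly; if unreached, use highest concentration. Here, GI50 denotes the concentration required for 50% inhibition of growth.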 Active and inactive are the calls of the source. Cut-off read from the data, not from the text of the source: active = GI50 up to about 1.1 µM and inactive = higher.

Legend:
Experiment in all cases: NCI anticancer screen, dose series, 48 h
UACC-257 = test system: UACC-257
SK-MEL-5 = test system: SK-MEL-5
NCI-H226 = test system: NCI-H226
UACC-62 = test system: UACC-62
SK-OV-3 = test system: SK-OV-3
HCT-15 = test system: HCT-15
SNB-19 = test system: SNB-19
U-251 = test system: U-251
RXF 393 = test system: RXF 393
HOP-62 = test system: HOP-62
HT-29 = test system: HT-29
IGROV-1 = test system: IGROV-1
RPMI-8226 = test system: RPMI-8226
UO-31 = test system: UO-31
COLO 205 = test system: COLO 205
OVCAR-5 = test system: OVCAR-5
TK-10 = test system: TK-10
NCI-H522 = test system: NCI-H522
CAKI-1 = test system: CAKI-1

Structure (SMILES) | GI50 (UACC-257) | GI50 (SK-MEL-5) | GI50 (NCI-H226) | GI50 (UACC-62) | GI50 (SK-OV-3) | GI50 (HCT-15) | GI50 (SNB-19) | GI50 (U-251) | GI50 (RXF 393) | GI50 (HOP-62) | GI50 (HT-29) | GI50 (IGROV-1) | GI50 (RPMI-8226) | GI50 (UO-31) | GI50 (COLO 205) | GI50 (OVCAR-5) | GI50 (TK-10) | GI50 (NCI-H522) | GI50 (CAKI-1)
N#Cc1c(-c2ccco2)cc(-c2ccccc2)nc1O | > 100 µM (inactive) | > 100 µM (inactive) | > 100 µM (inactive) | > 100 µM (inactive) | > 100 µM (inactive) | > 100 µM | > 100 µM (inactive) | > 100 µM (inactive) | > 100 µM (inactive) | > 100 µM (inactive) | > 100 µM (inactive) | > 100 µM (inactive) | > 100 µM (inactive) | > 100 µM (inactive) | > 100 µM (inactive) | > 100 µM (inactive) | > 100 µM (inactive) | > 100 µM (inactive) | 
CC1CCP(=O)(c2ccccc2)c2ccccc21 (stereo unspecified) | 65.9 µM (inactive) | 49.5 µM (inactive) | > 100 µM (inactive) | 52.8 µM (inactive) | > 100 µM (inactive) | 38.1 µM | > 100 µM (inactive) | 24.1 µM (inactive) | > 100 µM (inactive) | 78.7 µM (inactive) | > 100 µM (inactive) | > 100 µM (inactive) | 64.3 µM (inactive) | > 100 µM (inactive) | 51.8 µM (inactive) | > 100 µM (inactive) | > 100 µM (inactive) | 43.6 µM (inactive) | 
COC(=O)C1=C(C(=O)OC)SC(=CC#CC=C2SC(C(=O)OC)=C(C(=O)OC)S2)S1 | > 54.3 µM (inactive) | 27 µM (inactive) | 10.6 µM (inactive) | 8.26 µM (inactive) | 16.5 µM (inactive) | 12.6 µM | 6.41 µM (inactive) | 16.1 µM (inactive) |  | 3.96 µM (inactive) | 24.9 µM (inactive) | 18.2 µM (inactive) | > 100 µM (inactive) | 3.51 µM (inactive) | 11.7 µM (inactive) | > 90.6 µM (inactive) | 9.06 µM (inactive) | 24.4 µM (inactive) | 25.5 µM (inactive)
N/N=C1\C(=O)N(CCc2ccccc2)C(=O)C1C(=O)NCCc1ccccc1 (stereo unspecified) | > 100 µM (inactive) |  | > 100 µM (inactive) | > 100 µM (inactive) | > 100 µM (inactive) |  | > 100 µM (inactive) | > 100 µM (inactive) |  |  | > 100 µM (inactive) | > 100 µM (inactive) | > 100 µM (inactive) | > 100 µM (inactive) |  |  | > 100 µM (inactive) | > 100 µM (inactive) | > 100 µM (inactive)
CC(C)(Oc1ccc(/C=C/C(=O)c2ccc(Cl)cc2)cc1)C(=O)Nc1c(Cl)cccc1Cl | 30.9 µM (inactive) | 18.2 µM (inactive) | 25.5 µM (inactive) | 17.3 µM (inactive) | 34 µM (inactive) | 15.1 µM | 33.8 µM (inactive) | 12.5 µM (inactive) | 20.6 µM (inactive) | 72.3 µM (inactive) | 13.3 µM (inactive) | 26.9 µM (inactive) |  | 24.4 µM (inactive) | 17.8 µM (inactive) | 41.1 µM (inactive) | 59.4 µM (inactive) |  | 23.7 µM (inactive)
CC(C)OP(=O)(NC(=S)c1ccccc1)OC(C)C | > 100 µM (inactive) | 34.5 µM (inactive) | > 100 µM (inactive) | 71.1 µM (inactive) | > 100 µM (inactive) | > 100 µM | > 100 µM (inactive) | > 100 µM (inactive) |  |  | 43.5 µM (inactive) | > 100 µM (inactive) |  | > 100 µM (inactive) | > 100 µM (inactive) | > 100 µM (inactive) | > 100 µM (inactive) |  | > 100 µM (inactive)
CN1C(=O)n2c(nc3ccccc32)C(N=[N+]=[N-])(N=[N+]=[N-])C1=O (stereo unspecified) | > 100 µM (inactive) | > 100 µM (inactive) | > 100 µM (inactive) | > 100 µM (inactive) | > 100 µM (inactive) | 99.1 µM | > 100 µM (inactive) | > 100 µM (inactive) | > 100 µM (inactive) | > 100 µM (inactive) | > 100 µM (inactive) | > 100 µM (inactive) | > 100 µM (inactive) | > 100 µM (inactive) | > 100 µM (inactive) | > 100 µM (inactive) | > 100 µM (inactive) | > 100 µM (inactive) | 35.2 µM (inactive)
CC1(C)c2ccccc2N2O[C@@H]3C(=O)N(c4ccccc4)C(=O)[C@@H]3C21c1ccccc1 (stereo partly specified) | > 100 µM (inactive) | > 100 µM (inactive) | > 100 µM (inactive) | > 100 µM (inactive) | > 100 µM (inactive) | > 100 µM | > 100 µM (inactive) |  | 14.6 µM (inactive) | > 100 µM (inactive) | > 100 µM (inactive) | > 100 µM (inactive) | 57.7 µM (inactive) | > 100 µM (inactive) | > 100 µM (inactive) |  | > 100 µM (inactive) | 41.1 µM (inactive) | > 100 µM (inactive)
N#C/N=C(/NCCc1c[nH]c2ccccc12)Oc1ccccc1 | > 100 µM (inactive) | 35.6 µM (inactive) | 77.3 µM (inactive) | 75.3 µM (inactive) | > 100 µM (inactive) | 56.8 µM | 93.5 µM (inactive) | > 100 µM (inactive) | > 100 µM (inactive) | > 100 µM (inactive) | 34.8 µM (inactive) | > 100 µM (inactive) | 37.7 µM (inactive) | 23.4 µM (inactive) | 59 µM (inactive) | > 100 µM (inactive) | 84.5 µM (inactive) |  | 
COC(=O)c1cc(O)ccc1NC(=O)c1ccc(O)cc1 | > 100 µM (inactive) | > 100 µM (inactive) | > 100 µM (inactive) | > 100 µM (inactive) | > 100 µM (inactive) | > 100 µM | > 100 µM (inactive) | > 100 µM (inactive) |  | > 100 µM (inactive) | > 100 µM (inactive) | > 100 µM (inactive) | > 100 µM (inactive) | > 100 µM (inactive) | > 100 µM (inactive) | > 100 µM (inactive) | 82.2 µM (inactive) | 41.4 µM (inactive) | 79.4 µM (inactive)
CCC(=O)C1=C(OC(C)=O)C2Cc3c(n(C)c4ccccc34)C(C1)N2C (stereo unspecified) | 24.5 µM (inactive) | 28.2 µM (inactive) | > 100 µM (inactive) | 26.2 µM (inactive) | > 100 µM (inactive) | 18.7 µM | > 100 µM (inactive) | > 100 µM (inactive) |  |  | 30.8 µM (inactive) | 29.9 µM (inactive) |  | 36.1 µM (inactive) | 34 µM (inactive) | > 100 µM (inactive) | 66.1 µM (inactive) | 15.3 µM (inactive) | 33.7 µM (inactive)
CC(C)c1cccc(C(C)C)c1NC(=S)NN=C1C=C(C(C)(C)C)C(=O)C(C(C)(C)C)=C1 | 18.9 µM (inactive) | 21 µM (inactive) | 10 µM (inactive) | 20.3 µM (inactive) |  | 37.3 µM | 22.3 µM (inactive) | 16.2 µM (inactive) | 16.7 µM (inactive) | 16.5 µM (inactive) | 33 µM (inactive) | 26 µM (inactive) | 27.2 µM (inactive) | 29.6 µM (inactive) | 20.1 µM (inactive) |  | 30.4 µM (inactive) |  | 
